Results on 1 substance are retold here after patent US20080253996A1, “Use of Sdf-1 for the Treatment and/or Prevention of Neurological Diseases” (LABORATORIES SERONO SA, priority 2005, published 2008).

The subject of experiment [1] is leukocytes recruited in the peritoneal cavity. Kind of experiment: In vivo model of peritoneal cell recruitment. Details: species or system mouse. Particulars: 4 μg i.p. in Balb/C mice, 4 hours post injection. The procedure: 8-12 week old, female Balb/C mice (Janvier, France) were injected intra peritoneally (i.p.) with 200 μl NaCl (0.9%, LPS free) or chemokine 4 μg (WT SDF-1α or SDF-1α variant according to SEQ ID NO:4 diluted in 200 μl NaCl (0.9%, LPS free). […] of WT or mutant SDF-1α, mice were sacrificed by CO2 asphyxiation, the peritoneal cavity was washed with 3×5 ml ice cold PBS and the total lavage was pooled for individual mice. Total cells collected were counted by haemocytometer (Neubauer, Germany).

Experiment [2] has as its system primary mixed cortical cultures stimulated with LPS. Kind of experiment: Cytokine release (TNF-α, IL-6) from LPS stimulated primary mixed cortical cultures. In kind it is cell-based, mouse. As for the experimental part: Culturing of primary cells was performed as described (Lubetzki et al., 1993) using brain tissue from embryos isolated from NMRI mice at 16 days post-coitum. Cerebral hemispheres were dissected from embryo brains, dissociated via trypsin digestion and the single cell suspension was seeded at 5×10^4 cells in 50 μl myelination medium per well onto BioCoat® poly-L-lysine coated 96-well plates (356516, Becton Dickinson). The myelination medium consisted of Bottenstein-Sato medium (Bottenstein and Sato, 1979; Sadir et al., 2001), supplemented with 1% FCS, 1% penicillin-streptomycin solution (Seromed) and recombinant platelet-derived growth factor AA (PDGF-AA, R&D Systems) at 10 ng/mL.
For testing the effects of SDF-1α and SDF-1α variant (as defined in SEQ ID NO: 4) on LPS stimulated cultures, cells were allowed to grow for two weeks. At day 14 cells were pre-incubated with increasing concentrations (0.001, 0.1 and 10 ng/ml) of the corresponding proteins into 25 μl of medium for three hours at 37° C. and 10% CO2. LPS was then supplemented to the cells at the concentration of 5 ng/ml into 25 μl of medium to obtain a final volume of 100 μl and incubated for 48 hours. Supernatants were collected at day 16 and the levels of TNF-α and IL-6 (the major cytokines released by activated microglia) were measured via specific ELISAs purchased from R&D systems (DuoSet mouse TNF-α ELISA DY410, mouse IL-6 ELISA DY406).
Global analysis of the data was performed using one-way ANOVA. Dunnett's test was used further, and data were compared to the “untreated cells”. The level of significance was set at a: p<0.001; b or **: p<0.01; c or *: p<0.05; d: p<0.1. The results were expressed as mean ±standard error of the mean (s.e.m.).

[3] abbreviates: pre-incubation 3 h (SDF proteins 0.001, 0.1, 10 ng/ml; IL-10 10 ng/ml; dexamethasone 25 pM), then LPS 5 ng/ml 48 h, ELISA, compared to untreated cells.

As to “SDF-1α: Human recombinant chemokine SDF-1α (SEQ ID NO: 1), produced in house, expressed in E. Coli cells”, the “leukocyte recruitment in the peritoneal cavity” value in experiment [1] is on record as “recruits leukocytes”. Moreover, in experiment [2] (setting [3]), the “levels of IL-6 secretion” value is given as “significantly decreased” and the “levels of TNF-α secretion” value is “significantly decreased”. In experiment [2] (tested 0.001, 0.1 and 10 ng/ml, LPS 5 ng/ml 48 h), the “best concentration for decrease of TNF-α and IL-6 secretion” value worked out at 10 ng/mL.
